According to BigSolDB 2.1:

CC(C)C(N)=O
Conditions | solubility (mole fraction)
in 2-butanone, 273.15 K | 0.0397
in 2-butanone, 279.15 K | 0.045
in 2-butanone, 284.15 K | 0.0497
in 2-butanone, 289.15 K | 0.0548
in 2-butanone, 293.75 K | 0.0597
in 2-butanone, 299.05 K | 0.0657
in 2-butanone, 303.75 K | 0.0713
in 2-butanone, 308.55 K | 0.0773
in 2-butanone, 313.65 K | 0.0841
in 2-butanone, 318.25 K | 0.0904
in 2-butanone, 323.95 K | 0.0988
in THF, 273.15 K | 0.0439
in THF, 279.15 K | 0.0514
in THF, 284.15 K | 0.0585
in THF, 289.15 K | 0.0661
in THF, 293.75 K | 0.0741
in THF, 299.05 K | 0.0837
in THF, 303.75 K | 0.093
in THF, 308.55 K | 0.103
in THF, 313.65 K | 0.115
in THF, 318.25 K | 0.126
in THF, 323.95 K | 0.141
in acetone, 273.15 K | 0.00931
in acetone, 279.15 K | 0.0135
in acetone, 283.95 K | 0.018
in acetone, 289.15 K | 0.0244
in acetone, 293.85 K | 0.0317
in acetone, 299.15 K | 0.0422
in acetone, 303.45 K | 0.0528
in acetone, 309.05 K | 0.0703
in acetone, 313.25 K | 0.0857
in acetone, 319.15 K | 0.114
in acetone, 324.15 K | 0.143
in acetonitrile, 273.15 K | 0.0122
in acetonitrile, 279.15 K | 0.0166
in acetonitrile, 283.95 K | 0.021
in acetonitrile, 289.15 K | 0.0271
in acetonitrile, 293.85 K | 0.0335
in acetonitrile, 299.15 K | 0.0424
in acetonitrile, 303.45 K | 0.051
in acetonitrile, 309.05 K | 0.0645
in acetonitrile, 313.25 K | 0.0766
in acetonitrile, 319.15 K | 0.0961
in acetonitrile, 324.15 K | 0.116
in chloroform, 273.15 K | 0.013
in chloroform, 279.15 K | 0.0176
in chloroform, 284.15 K | 0.0222
in chloroform, 289.15 K | 0.0282
in chloroform, 294.15 K | 0.0352
in chloroform, 299.15 K | 0.0436
in chloroform, 303.75 K | 0.0529
in chloroform, 309.15 K | 0.0656
in chloroform, 313.15 K | 0.0769
in chloroform, 319.15 K | 0.0968
in chloroform, 324.75 K | 0.119
in cyclohexanone, 273.15 K | 0.0267
in cyclohexanone, 279.15 K | 0.0333
in cyclohexanone, 284.15 K | 0.0398
in cyclohexanone, 289.15 K | 0.0473
in cyclohexanone, 293.75 K | 0.0551
in cyclohexanone, 299.05 K | 0.0653
in cyclohexanone, 303.75 K | 0.0756
in cyclohexanone, 308.55 K | 0.0873
in cyclohexanone, 313.65 K | 0.101
in cyclohexanone, 318.25 K | 0.115
in cyclohexanone, 323.95 K | 0.135
in cyclopentanone, 273.15 K | 0.0441
in cyclopentanone, 279.15 K | 0.0544
in cyclopentanone, 284.15 K | 0.0642
in cyclopentanone, 289.15 K | 0.0754
in cyclopentanone, 293.75 K | 0.0871
in cyclopentanone, 299.05 K | 0.102
in cyclopentanone, 303.75 K | 0.117
in cyclopentanone, 308.55 K | 0.134
in cyclopentanone, 313.65 K | 0.154
in cyclopentanone, 318.25 K | 0.174
in cyclopentanone, 323.95 K | 0.201
in ethanol, 273.15 K | 0.0474
in ethanol, 279.15 K | 0.0599
in ethanol, 283.95 K | 0.0715
in ethanol, 289.15 K | 0.086
in ethanol, 293.85 K | 0.102
in ethanol, 299.15 K | 0.121
in ethanol, 303.45 K | 0.139
in ethanol, 309.05 K | 0.166
in ethanol, 313.25 K | 0.189
in ethanol, 319.15 K | 0.226
in ethanol, 324.15 K | 0.26
in ethyl formate, 273.15 K | 0.0121
in ethyl formate, 279.15 K | 0.0153
in ethyl formate, 284.15 K | 0.0186
in ethyl formate, 289.15 K | 0.0223
in ethyl formate, 293.75 K | 0.0263
in ethyl formate, 299.05 K | 0.0316
in ethyl formate, 303.75 K | 0.0371
in ethyl formate, 308.55 K | 0.0432
in ethyl formate, 313.65 K | 0.0508
in ethyl formate, 318.25 K | 0.0583
in ethyl formate, 323.95 K | 0.069
in isobutanol, 273.15 K | 0.0521
in isobutanol, 279.15 K | 0.0633
in isobutanol, 284.15 K | 0.0737
in isobutanol, 289.15 K | 0.0855
in isobutanol, 293.75 K | 0.0976
in isobutanol, 299.05 K | 0.113
in isobutanol, 303.75 K | 0.129
in isobutanol, 308.55 K | 0.146
in isobutanol, 313.65 K | 0.166
in isobutanol, 318.25 K | 0.186
in isobutanol, 323.95 K | 0.213
in isopropanol, 273.15 K | 0.0245
in isopropanol, 279.15 K | 0.0339
in isopropanol, 283.95 K | 0.0433
in isopropanol, 289.15 K | 0.0561
in isopropanol, 293.85 K | 0.0702
in isopropanol, 299.15 K | 0.0901
in isopropanol, 303.45 K | 0.109
in isopropanol, 309.05 K | 0.139
in isopropanol, 313.25 K | 0.166
in isopropanol, 319.15 K | 0.211
in isopropanol, 324.15 K | 0.257
in methanol, 273.15 K | 0.0844
in methanol, 279.15 K | 0.0988
in methanol, 283.95 K | 0.112
in methanol, 289.15 K | 0.127
in methanol, 293.85 K | 0.142
in methanol, 299.15 K | 0.161
in methanol, 303.45 K | 0.177
in methanol, 309.05 K | 0.201
in methanol, 313.25 K | 0.219
in methanol, 319.15 K | 0.247
in methanol, 324.15 K | 0.274
in methyl acetate, 273.15 K | 0.03
in methyl acetate, 279.15 K | 0.0343
in methyl acetate, 284.15 K | 0.0381
in methyl acetate, 289.15 K | 0.0422
in methyl acetate, 293.75 K | 0.0463
in methyl acetate, 299.05 K | 0.0513
in methyl acetate, 303.75 K | 0.056
in methyl acetate, 308.55 K | 0.0611
in methyl acetate, 313.65 K | 0.0668
in methyl acetate, 318.25 K | 0.0722
in methyl acetate, 323.95 K | 0.0794
in n-butanol, 273.15 K | 0.0542
in n-butanol, 279.15 K | 0.0653
in n-butanol, 284.15 K | 0.0756
in n-butanol, 289.15 K | 0.0873
in n-butanol, 293.75 K | 0.0993
in n-butanol, 299.05 K | 0.115
in n-butanol, 303.75 K | 0.13
in n-butanol, 308.55 K | 0.146
in n-butanol, 313.65 K | 0.165
in n-butanol, 318.25 K | 0.184
in n-butanol, 323.95 K | 0.21
in n-propanol, 273.15 K | 0.0352
in n-propanol, 279.15 K | 0.047
in n-propanol, 283.95 K | 0.0585
in n-propanol, 289.15 K | 0.0741
in n-propanol, 293.85 K | 0.0909
in n-propanol, 299.15 K | 0.113
in n-propanol, 303.45 K | 0.135
in n-propanol, 309.05 K | 0.169
in n-propanol, 313.25 K | 0.198
in n-propanol, 319.15 K | 0.245
in n-propanol, 324.15 K | 0.294
